Source: patent US20240209016A1, “FLUORESCENT NUCLEOSIDE PHOSPHATES” (STEALTH LABELS BIOTECH AB, priority 2021, published 2024)
Where “and” joins values, the source holds several entries; their conditions need not be identical. Equal values may be shown once.

Legend:
[1] = Photophysical characterisation (absorption and emission spectra in DPBS); type: physicochemical; conditions: room temperature; for ε405, FBA χ ΦF: at 405 nm; for λem, max / ΦF: excitation 355 nm; for ΦF: relative to quinine sulphate
Method: Absorption spectra were recorded on a Cary 4000 spectrometer (Agilent Technologies). The emission spectra were measured on a SPEX Fluorolog 3 spectrofluorimeter (Jobin Yvon Horiba). Three consecutive emission spectra recorded at a scan rate of 600 nm min−1 were collected and averaged. The spectra of compounds 7 and 17 in DPBS were recorded from 360 nm to 695 nm with excitation at 355 nm. To avoid bleaching, the monochromator slits on the excitation side were set to 0.8 nm, and on the emission side to 2.5 nm.
The spectra of molar absorptivities (ε in M^−1cm^−1) were calculated using Equation 1, with A being the measured absorption, A260 and ε260 the absorption or molar absorptivity, respectively, at 260 nm.
The fluorescence quantum yields were determined relative to the quantum yield of quinine sulphate in 0.5 M H2SO4 (ϕF=0.546^42, referred to as reference), and calculated using Equation 2, in which subscripts s and r refer to sample and reference, respectively. I is the integrated fluorescence intensity, A the measured absorption of the fluorophore at the excitation wavelength and n is the refractive index of the solvent (H2O or H2SO4, respectively; Eaton D. F.; Pure Appl. Chem. 60, 1107-1114 [1988 ]).
The spectroscopic properties of compounds 7 and 17 were determined under physiological conditions in order to determine the experimental setup for cell studies, with absorption and emission spectra being recorded in DPBS to mimic the ionic strength and salt composition in mammalian cells. To record emission spectra, the excitation wavelength was set to 355 nm, and measurements were performed at room temperature (ca. 22° C.). Molar absorptivities (s) were then calculated using the Beer-Lambert law.

Huh-7 cells [2] = assay: Cellular uptake and localisation by confocal fluorescence microscopy; type: cell-based, human; conditions: 2.5 μM
Description: Confocal Laser Scanning Fluorescence Microscopy: Images were captured using a Nikon eclipse Ti microscope with a Nikon C2plus scanner, two parallel Gallium arsenide phosphide (GaAsP) detectors, and an Apo 60x Oil μS DIC N2 objective. To excite the fluorescent nucleoside triphosphates the 405 nm laser line was used, and the emission was collected between 407-607 nm. To optimize the signal while avoiding photobleaching of the compounds a laser power of 2% and a detector gain of 4% was applied. For live cell imaging, Huh-7 cells were seeded in a four-compartment dish (CELLview Dishes, Greiner Bio-One) with glass bottom as described above. During imaging the dish was placed in a stage top incubation chamber (OKO lab) maintaining 37° C. and 5% CO2.
Time-lapse Imaging: To image the uptake of compounds 7 and 17 over time, the time-lapse setup of the NIS software was used. […]
Results: To explore the cellular uptake of compounds 7 and 17, they were added to Huh-7 cells in CCM and the uptake was monitored as function of time using a confocal fluorescence microscope (FIG. 4). Control cells, exposed to CCM alone, were imaged using the same microscopy settings and recorded as reference to probe for cellular autofluorescence levels. […]

Huh-7 cells [3] = assay: Dose response of cell uptake, fluorescence in cell lysate; type: cell-based, human; conditions: 24 h exposure
Description: Quantification in Cell Lysate: For dose response experiments of the uptake of compounds 7 and 17, total cell lysates of the exposed cells were collected and measured on an Optima Blue Fluostar plate reader (BMG Labtech) with lysis buffer as background. 2CNqATP was excited using 355 nm (±20 nm) filter and emission was collected at through a bandpass filter centred at 460 nm (±12 nm). pATP was excited using 380 nm (±5 nm) filter and emission bandpass filter centred at 410 nm (±5 nm). Lysate buffer fluorescence was subtracted as background, and the fluorescence intensities of the triplicates were averaged. The fluorescence intensity was normalized to the highest added concentration of the compounds (10 μM).
Dose-response experiments were performed at one selected time point (24 h) in order to investigate the concentration dependency of cellular FBA-TP uptake. At the end of exposure, the cells were washed and lysed. The fluorescence of the compounds in the lysate, reflecting the internalized FBA, was measured using a plate reader. […] Compounds 7 and 17 show very different uptake characteristics. Cellular uptake of 2CNqATP increases dramatically with small increases in concentration and reaches a maximum, indicative of uptake saturation, already when 2.5 μM FBA-TP is added to the cells. By contrast, the increase of pATP emission between 0 and 2.5 μM is very small, only 4% of that of 2CNqATP, but when FBA-TP concentration is doubled it increases about 7 times. By adding 10 μM FBA-TP the fluorescence increases about 25 times, compared to 2.5 μM added compound.

[4] = DPBS, room temperature; cited from earlier work
Huh-7 cells [5] = assay: alamarBlue cell viability (metabolic activity) assay; type: cell-based; conditions: lower doses, 24 h exposure
Method: The Huh-7 human liver cell line was used.
After 24 h exposure with compounds 7 or 17, the conditioned medium was removed from the cells and used for the LDH leakage assay (see below). Freshly prepared alamarBlue cell viability reagent (Invitrogen, diluted 1:10 in CCM) was added, followed by incubation for 3 h at 37° C. and 5% CO2. The resulting resorufin fluorescence was read using an Optima Fluostar plate reader (BMG Labtech) Ex: 544 nm/Em: 590 nm. Dimethyl sulfoxide 5% and CCM alone (i.e. compounds 7 and 17 0 μM) were used as positive and negative controls for cell death, respectively.

Huh-7 cells [6] = assay: Lactate dehydrogenase (LDH) leakage assay (cell membrane integrity); conditions: all exposure conditions, 24 h; in parity with untreated control cells
Method: The Huh-7 human liver cell line was used. […] For sub-cultivation the adherent cells were washed twice with DPBS, containing no calcium or magnesium, and detached with 0.25% trypsin ethylenediaminetetraacetic acid 1x (trypsin-EDTA, Gibco, with phenol red). For seeding, the cells were counted after trypsin neutralization, diluted to the desired number of cells (Table 2) and thereafter incubated at 37° C. with 5% CO2 for 24 h before experiments.
Prior to treatment, the conditioned medium was removed from the Huh-7 cells, and the compounds (stock solution in DPBS diluted in CCM) were added to the cells for different exposure times. Unexposed cells were treated the same way, with the same amount of added DPBS to CCM, instead of the compounds. Two different cytotoxicity assays (alamarBlue to measure metabolic activity and LDH leakage to measure cell membrane integrity) were performed in parallel using the cells and the culture medium from each sample, respectively. Treatments were done in triplicates and the experiment was repeated twice.
Lactate Dehydrogenase (LDH) Leakage Assay: To test for released LDH, the CyQUANT LDH Cytotoxicity Assay kit (Invitrogen) was used. […] Maximum LDH release were determined by treating cells with a 1:10 dilution of lysis buffer in serum free medium for 30 min at 37° C. and 5% CO2.

Substance	absorption band peaks [1]	εmax, FBA χ ΦF [1]	λabs, max [1]	ε405, FBA χ ΦF [1]	λem, max [1]	ΦF [1]	intracellular fluorescence following 20 h exposure (Huh-7 cells [2])	fold increase of lysate fluorescence at 10 μM compared to 2.5 μM (Huh-7 cells [3])	fold increase of lysate fluorescence when concentration is doubled from 2.5 μM (Huh-7 cells [3])	increase of emission between 0 and 2.5 μM relative to that of 2CNqATP (Huh-7 cells [3])	ε260 [4]	comparison of cell viability at lower doses (Huh-7 cells [5])	added concentration at which uptake reaches maximum (saturation) (Huh-7 cells [3])	level of released LDH (Huh-7 cells [6])
((2R,3S,4R,5R)-5-(2,3,5,6-tetraazacyclopenta[de]tetracen-2(6H)-yl)-3,4-dihydroxytetrahydrofuran-2-yl)methyl hydrogen triphosphate [pATP]	370 nm and 386 nm	6000 M⁻¹ cm⁻¹	386 nm	909 M⁻¹ cm⁻¹	420 nm	49%	strong intracellular fluorescence	about 25 times	about 7 times	4%	22300^27 M^−1 cm^−1	–	–	–
((2R,3S,4R,5R)-5-(8-cyano-2,3,5,6-tetraazaaceanthrylen-2(6H)-yl)-3,4-dihydroxytetrahydrofuran-2-yl)methyl hydrogen triphosphate [2CNqATP]	–	4900 M⁻¹ cm⁻¹	352 nm	504 M⁻¹ cm⁻¹	463 nm	47%	strong intracellular fluorescence	–	–	–	14600^26 M^−1 cm^−1	slightly more toxic than pATP	2.5 µM	about 10%
